Patent US9441238B2, “Compositions and methods for modulating the sensitivity of cells to AHAS inhibitors” (SYNTHETIC GENOMICS, INC., priority 2012, dated 2016)

How the values were obtained:
Nannochloropsis sp. = assay: Growth inhibition of Nannochloropsis by herbicide in growth media; type: cell-based
AHAS = conditions: previously reported, several organisms; cited from earlier work

**Q.** Which “growth of Nannochloropsis sp.” value (Nannochloropsis sp.) does the source give for `COC(=O)c1ccccc1S(=O)(=O)NC(=O)Nc1nc(C)nc(OC)n1` [metsulfuron methyl] here?
**A.** Its value is “strongly inhibited”.

**Q.** What about the “concentration that could be used to effectively suppress wild-type growth” value (Nannochloropsis sp.; wild-type) of the same molecule?
**A.** The value was 30 µM.

**Q.** What about the “inhibitor of AHAS activity” value (AHAS) of the same molecule?
**A.** Its value is “potent inhibitor”.
